Experiments:
[1] = test system: U251 human glioblastoma cells; assay: Rat orthotopic glioblastoma model radiotherapy, Cilengitide scheduling experiments; format: in vivo; details: t-4 and t-8 h groups
Method: NIH mu nude rats are anaesthetized, restrained, and injected intracerebrally 1 mm retro orbitally, 3 mm to the right of the bregma and at a depth of 2.5 mm with 5×10E5 U251 human glioblastoma cells suspended in 10 ul of culture medium, using a #2701 Hamilton syringe fitted with a 26 gauge needle, essentially as previously described (Engebraaten et al., 1999). After 14 days, cilengitide (4 mg/kg) is given as an intraperitoneal bolus in PBS, at various time (8 h, 4 h, 2 h, 1 h) prior to a single treatment with single, collimated, dorsal-ventral beam of 6 MV x-rays, so that 95-100% of the central axis dose of 25 Gy hit the tumor volume (Kim et al., 1999). Each of the 7 subsequent days the animals also received an identical i.p. bolus of cilengitide. The animals are maintained under ad libitum food and drink until they become moribund, or are sampled for tissue analysis (in the t-4 and t-8 h groups, where the animals are healthy past 230 days post tumor injection). A Kaplan-Meier survival curve is calculated and plotted (FIG. 1) from the raw data (Table 1). All animals in the RT monotherapy group died by 120 d.

[2] = test system: newly diagnosed glioblastoma (GBM); assay: Phase I/IIa trial of cilengitide and temozolomide with concomitant radiotherapy in newly diagnosed glioblastoma; format: in vivo, human
Method: Purpose: To evaluate safety, toxicity, and efficacy of the combination of the cyclic RGD pentapeptide Cilengitide (=cyclo-(Arg-Gly-Asp-DPhe-NMe-Val)), an inhibitor of integrins avβ3 and avβ5, in addition to standard temozolomide (TMZ) and radiotherapy (RT).
Patients and methods: Fifty-two pts (PS 0-1: 92%, 2: 8%; median age 57 yrs) after biopsy (n=9/17%) or tumor resection (n=43/83%) were treated with standard TMZ/RT (Stupp et al. NEJM 2005). In addition Cilengitide (500 mg i.v., 2×/week) was started one week before TMZ/RT and given throughout for the duration of chemotherapy or until progression. Primary endpoint was progression free survival rate at 6 months (target: 65%). Patients were followed with MRI every 2 months. Histopathologic diagnosis and MRI imaging were independently reviewed, MGMT promotor methylation status was assessed in 45 (86.5%) pts.

[3] = human, in vivo; cited from earlier work
[4] = Cilengitide 500 mg i.v. 2x/week in addition to standard TMZ/RT

**Q.** With CC(C)[C@H]1C(=O)N[C@@H](CCCN=C(N)N)C(=O)NCC(=O)N[C@@H](CC(=O)O)C(=O)N[C@H](Cc2ccccc2)C(=O)N1C [Cilengitide, cyclo-(Arg-Gly-Asp-DPhe-NMeVal)] as the compound, how does the “animals healthy, days post tumor injection” value [1] read?
**A.** Its value is greater than 230 days.

**Q.** And the “haematological grade 3 and 4 toxicity: lymphopenia” value [2, 4]?
**A.** The value was 53.8%.

**Q.** And the “haematological grade 3 and 4 toxicity: neutropenia” value [2, 4]?
**A.** Its value is 9.6%.

**Q.** What about the “haematological grade 3 and 4 toxicity: thrombocytopenia” value [2, 4] of the same compound?
**A.** The value was 13.4%.

**Q.** What about the “patients with treatment related non-hematologic grade 3 toxicities” value [2, 4] of the same compound?
**A.** Its value is 5.7%.

**Q.** What about the “patients progression free at 6 months (PFS-6)” value ([2]; all 52 pts, Cilengitide in addition to TMZ/RT) of the same compound?
**A.** Its value is 65.4%.

**Q.** And the tolerability ([2]; combination of Cilengitide and TMZ/RT)?
**A.** Its tolerability is “well tolerated”.

**Q.** And the PFS-6 rate ([2]; subgroup with methylated MGMT promoter (23/52), Cilengitide in addition to TMZ/RT)?
**A.** Its PFS-6 rate is 91%.

**Q.** And the PFS-6 rate ([2]; subgroup with unmethylated MGMT promotor (22/52), Cilengitide in addition to TMZ/RT)?
**A.** Its PFS-6 rate is 40.9%.

**Q.** What about the half-life [3] of the same compound?
**A.** The half-life was 3 to 5 h.
